Measurements published in patent US20240391940A1, “FUSED RING-CONTAINING COMPOUND, APPLICATION THEREOF, AND COMPOSITION CONTAINING SAME” (GenEros Biopharma Ltd., priority 2020, published 2024).
Several values for one entry are separate records, joined by “and”; a condition that tells them apart may be missing. Identical values can stand only once. Entries after “also recorded” stand apart in the source; their conditions may differ.

Assays:
female BALB/c mice = test: Acute toxicity, single administration in mice; type: in vivo
Description: • Part I: Single administration. A total of 6 mice were used. They were randomly divided into 2 groups: the vehicle control and GEN1-284s (1000 mg/kg), dosed once by oral gavage and observed for 6 days, and changes in body weight and activities were recorded. • Part II: Multiple administrations. This experiment used a total of 6 mice. They were divided into two groups of 3: a GEN1-284s-1000 mg/kg group and a GEN1-284s-300 mg/kg group, and were intragastrically given GEN1-284s for 14 consecutive days at 200 μL each. The state and survival of the mice were observed every day, and their body weights were recorded. Two mice died 2 h after GEN1-284s-1000 mg/kg administration. The dose was changed to 600 mg/kg, and the experiment was continued.
This experiment used a total of 6 mice. They were randomly divided into two groups of 3: a vehicle group and a GEN1-284s-1000 mg/kg group, and were intragastrically dosed once on day 0 at 200 μL each. The state and survival of the mice were observed every day, and their body weights were recorded.
Changes in body weight and survival of the mice were observed during 6 days after the single administration, and changes in body weight and the survival of the mice were observed during 14 consecutive days of high-dose GEN1-284s administration.

[1] = tested on: Apoe KO mouse atherosclerosis model; test: Atherosclerosis model: aortic plaque En-face staining and plaque area; type: in vivo, C57BL/6 Apoe KO mice; conditions: Apoe KO mice, high-fat diet; GEN1-284s 60 mpk QD oral
Description: Method: Apoe KO mice were tested for basal blood lipid levels and divided into a normal control group and a high-fat group. After 8 weeks of housing, the mice from the high-fat group were divided into 4 groups of about 8: a normal diet group (Chow), a high-fat diet model group (HFD), an Atorvastatin positive group (HFD+atorvastatin 5 mpk, QD), and a GEN1-284s group (284-60 mpk, QD). Oral administration was performed for 8 consecutive weeks, and the effect of the compound on the following indicators in Apoe KO mice was observed: 4 blood lipid tests (TC, TG, HDL-C and LDL-C), aortic plaque En-face staining, and pathological oil red staining of the cardiac outflow tract.
Mice from the groups except for the normal diet control group (Chow) were fed with high-fat feed every day for […]. From week 9, each group was orally administered solvent or a corresponding test compound, and body weight data were recorded every day for 8 consecutive weeks. After the first 8 weeks' high-fat diet, blood samples were taken and centrifuged to separate serum, and the serum was tested for blood lipid levels (TCHO, TG, LDL-C and HDL-C). The mice were randomly grouped according to the TCHO results and body weight. During the subsequent 8 weeks of administration, blood lipid tests (TCHO, TG, LDL-C and HDL-C) were run once every 4 weeks.
At the end of the experiment, the mice were euthanized by CO2 inhalation, and their hearts and aortas (from the aortic arch to the iliac artery) were isolated. The isolated artery was dissected longitudinally from the aortic arch to the iliac artery, fixed in 4% paraformaldehyde for 30 min, synchronized with 60% isopropanol for 10 min, then stained in 60% oil red for 30 min, and then washed with 60% isopropanol 3 times for 5 min each time. Finally, the stained aorta was washed with deionized water and photographed. The proportion of red plaque areas was measured using Image Pro Plus 6.0 (Media Cybernetics, MD, US).

[2] = tested on: IMQ-induced psoriasis mouse model; test: IMQ-induced psoriasis mouse model (PASI scoring); type: in vivo, Balb/c mice; conditions: IMQ-induced psoriasis mice; GEN1-284s 30 mg/kg PO qD
Description: Method: This experiment used a total of 19 mice. A natural skin observation control (n=1). 2 cm^2 of hair was shaved off the backs of […] on day 0, the stubble was removed with a mild depilatory cream, and the original skin was photographed. 62.5 mg of IMQ was applied to each of the mice. There was a mock group (n=6), a DEX (3 mg/kg, PO., qD) group (n=6), and a GEN1-284s (30 mg/kg, PO, qD) group (n=6). On the day of modeling, administration was performed in a volume of 100 μL/20 g body weight 4 h after IMQ application. The PASI scoring method was used to score the erythema, swelling and scaling on the skin of the mice. The experiment took a total of 6 days. The first day was set to day 0. IMQ application and administration were not performed on day 5. The mice were sacrificed with carbon dioxide at the end of the experiment.
The test animals were anesthetized with isoflurane. 2 cm^2 of hair was shaved off the backs of the mice, and the stubble was removed with a depilatory cream. IMQ application was performed for a total of 5 days, from day 0 to day 4. Scoring and IMQ application were performed every morning. Administration was performed in the afternoon
Desquamation (D): means epidermal cells flake off. The severity scores of skin lesions were as follows: • 0=none; this sign cannot be confirmed by careful observation • 1=mild; this sign can be confirmed but careful observation is required • 2=moderate; this sign is more visible and can be confirmed immediately • 3=severe; this sign is marked. • 4=very severe; this sign is very marked.
Induration I: 0—skin lesions are at the same level as normal skin; • 1—skin lesions are at slightly higher levels than normal skin surface; • 2—lesions moderately stick out and have round or slope-shaped borders; • 3—skin lesions are thick and markedly stick out; • 4—skin lesions are very thick and very markedly stick out.
Erythema E: • 0—no visible erythema; • 1—light red; • 2—red; • 3—dark red; • 4—the red is very dark

[3] = tested on: LPS-induced production of TNF-α; test: LPS-induced TNF-α production in mice (plasma ELISA); type: in vivo; conditions: Balb/c mice; GEN1-284s 15 mpk intragastric, LPS 1 mpk i.p. 0.5 h after administration, plasma 2 h after LPS
Description: Materials and method: A total of 18 mice were used in this experiment. The mice were divided into a MOCK group (n=6), a dexamethasone group (n=6), and a GEN1-284s 15 mpk group (n=6). LPS (1 mpk) was intraperitoneally injected 0.5 h after administration. The mice were sacrificed 2 h after the LPS injection, and blood samples were taken. The blood samples were left in EDTA-K2 anticoagulant tubes at room temperature for 20 min and centrifuged at 8000 rpm for 10 min. The plasma was separated and cryopreserved at −80° C. before analysis.
LPS (1 mpk) was intraperitoneally injected 0.5 h after administration. The mice were sacrificed 2 h after the LPS injection, and blood samples were taken. The blood samples were left in EDTA-K2 anticoagulant tubes at room temperature for 20 min and centrifuged at 8000 rpm for 10 min. The plasma was separated and cryopreserved at −80° C. before analysis.
The mice were tested for TNF-α level with ELISA kits, and the inhibitory effect of GEN1-284s on the TNF-α level was evaluated.
According to the instructions for use, a standard curve formula (y=0.0038x+0.1206, R^2=0.9956) was obtained and can be used to calculate detection values.

O=C(Cc1ccc2ncccc2c1)N1CCC(n2c(=O)n(COP(=O)([O-])[O-])c3cccc(C(F)(F)F)c32)CC1.[Na+].[Na+] [GEN1-284 salt, (2-Oxo-3-(1-(2-(quinolin-6-yl)acetyl)piperidin-4-yl)-4-(trifluoromethyl)-2,3-dihydro-1H-benzo[d]imidazol-1-yl)methyl disodium phosphate]
Changes in body weight after the single administration (female BALB/c mice; 1000 mg/kg P.O once on day 0, Day 0, individual mice F4-F6): 23.5 and 21.2 and 21.1 | Changes in body weight after the single administration (female BALB/c mice; 1000 mg/kg P.O once on day 0, Day 1, individual mice F4-F6): 23.8 and 21.5 and 22 | Changes in body weight after the single administration (female BALB/c mice; 1000 mg/kg P.O once on day 0, Day 2, individual mice F4-F6): 23.5 and 21.9 and 21.7 | Changes in body weight after the single administration (female BALB/c mice; 1000 mg/kg P.O once on day 0, Day 3, individual mice F4-F6): 24.1 and 21.8 and 20.3 | Changes in body weight after the single administration (female BALB/c mice; 1000 mg/kg P.O once on day 0, Day 4, individual mice F4-F6): 24.3 and 21.8 and 22.7 | Changes in body weight after the single administration (female BALB/c mice; 1000 mg/kg P.O once on day 0, Day 5, individual mice F4-F6): 23.8 and 21.6 and 23.4 | Changes in body weight after the single administration (female BALB/c mice; 1000 mg/kg P.O once on day 0, Day 6, individual mice F4-F6): 23.4 and 21.6 and 22.8 | Effect of single administration on body weight, activity and survival (female BALB/c mice; female BALB/c mice, 1000 mg/kg once by oral gavage, observed 6 days, 1000 mg/kg): did not affect the body weight or activity; also recorded: did not affect the survival and body weight of the animals | Formation of atherosclerotic plaques [1]: significantly reduced the formation of atherosclerotic plaques | Swelling of the skin [2]: partially ameliorate the psoriatic swelling | Inhibition rate against LPS-induced TNF-α [3]: 36%
